Literature values in patent US20080269334A1, “Highly Concentrated Pourable Aqueous Solutions Of Potassium Ibuprofen, Their Preparation And Their Use” (ALBEMARLE CORPORATION, priority 2005, published 2008).

For CC(C)Cc1ccc(C(C)C(=O)O)cc1 (stereo not drawn) [ibuprofen], the “solubility of ibuprofen in a solvent system” value (402 mg ibuprofen, 100 mg PEG 600, 3.3 wt % glycerin or propylene glycol, 6.4 wt % water, 38.4 mg KOH, U.S. Pat. Nos. 5,071,643 and 5,360,615) is listed as 67%.
For CC(C)Cc1ccc(C(C)C(=O)[O-])cc1.[K+] (stereo not drawn) [potassium ibuprofen, potassium 2-(4-isobutylphenyl)propionate], the “concentration of dissolved potassium ibuprofen” value (U.S. Pat. No. 5,912,011 Table 1, system with 35.2 wt % ibuprofen, 33.3 wt % PEG 600, 7.3 wt % water) is listed as 24.2 wt % and the “maximum concentration of dissolved potassium ibuprofen shown” value (U.S. Pat. No. 6,387,400, polyethylene glycol solvent, less than about 50 mole % of ibuprofen converted to the potassium salt) is listed as “about 24.2 wt %”.
